Consider 3 substances from patent publication US20230414476A1, “TETRAPEPTIDE AND COMPOSITIONS COMPRISING TETRAPEPTIDES” (THE BOOTS COMPANY, priority 2020, published 2023).

The subject of assay [1] is Fibronectin. The assay can be described thus: ELISA of fibronectin in culture supernatant of human dermal fibroblasts. Format: cell-based. Particulars: normal human dermal fibroblasts, 72 hours, weighted to viable cells. Here is the method:
(§1) An ELISA is an immunological assay commonly used to measure presence and abundance of a specific proteins (antibodies, antigens, proteins and glycoproteins) in biological samples. In this case ELISAs are being used to quantify the expression of dermal extracellular proteins collagen-1, decorin, fibronectin and collagen IV. The quantity of collagen I is evaluated via the quantity of PIP (“carboxU-terminal pro-peptide of procollagen type I”) which is a peptide fragment resulting from the enzymatic degradation of procollagen present outside the fibroblast in the culture supernatant medium.
(§2) Normal human dermal fibroblasts cells (HDFs) were cultured in contact with the tetrapeptides of the present invention, or composition without the peptide (negative control), for 72 hours. Thereafter the cultured supernatants were removed, and the quantity of dermal extracellular proteins determined using an ELISA assay for the protein of interest. For the ELISA quantification, cell viability was calculated using Hoechst staining allowing the quantity of dermal proteins to be weighted to the number of viable cells.
(§3) The effect of XXGD tetrapeptides on ECM protein expression by fibroblasts as measured by ELISA (columns 1 to 2) versus a tetrapeptide not conforming to the XXGD structure (column 3) are presented in the table below (table 1). Results are expressed as % increase or decrease versus the negative control.
Background: An ELISA detects its analyte on a solid surface through an enzyme-linked reagent.

For assay [2], the system named is Collagen IV. The assay is described as follows: ELISA of collagen IV in culture supernatant of human dermal fibroblasts. Format: cell-based. The note with it: normal human dermal fibroblasts, 72 hours, weighted to viable cells. The protocol:
as §1, §2, §3

Assay [3] relates to Collagen I (PIP). The assay is described as follows: ELISA of collagen I (via PIP) in culture supernatant of human dermal fibroblasts. It counts as cell-based. The note with it: normal human dermal fibroblasts, 72 hours, weighted to viable cells. The protocol:
as §1, §2
The quantity of collagen I is evaluated using the quantity of PIP (“carboxU-terminal pro-peptide of procollagen type I”) which is a peptide fragment resulting from the enzymatic degradation of procollagen present outside the fibroblast in the culture supernatant medium.
as §3

The subject of assay [4] is Decorin. The assay is described as follows: ELISA of decorin in culture supernatant of human dermal fibroblasts. Format: cell-based. The note with it: normal human dermal fibroblasts, 72 hours, weighted to viable cells. Here is the method:
as §1, §2, §3

The subject of assay [5] is Fibrillin-1. The assay is described as follows: Immunofluorescence of Fibrillin-1 expression by HDF cells. It counts as cell-based, human. Particulars: primary HDF cells, 5 days. The protocol: Immunofluorescence relies on the use of antibodies to label a specific protein with a fluorescent dye such as fluorescein isothiocyanate (FITC). In the following experiments, indirect immunofluorescence is used where a primary antibody first recognises and attaches to the specific protein, in this case fibrillin-1, and then a secondary antibody conjugated with FITC directed against the primary antibody is used for detection.
Fibrillin-1 expression was determined using immunofluorescence. Primary human dermal fibroblast (HDF) cells were purchased from Promo Cell and came from a donor. Cells were grown in wells of 96 well black walled clear bottomed plates (Peirce, Thermo Fisher). Cells were cultured in HDF media (PromoCell) supplemented with Basic Fibroblast Growth Factor (recombinant human), 1 ng/ml and Insulin 5 μg/ml. […]
The antibody binding to Fibrillin-1 fibres was visualised using a Nikon Eclipse 100 microscope fluorescence setting using an excitation lens for fluorescein isothiocyanate (FITC). […] ImageJ software was used to quantify the Fibrillin-1 fibre abundance and coverage in each image using a threshold of 235 measuring the fibre density.
Results are expressed as a percentage increase in fibrillin abundance compared to untreated control. […]

For the substance Pal-AKGD-OH, the “Fibronectin expression, % increase or decrease versus the negative control” value in assay [1] (peptide 15 ppm) is on record as “+112%”. Besides, in assay [2] (peptide 15 ppm), the “Collagen IV expression, % increase or decrease versus the negative control” value is reported as “+40%”. In assay [3] (peptide 15 ppm), the “Collagen I (PIP) expression, % increase or decrease versus the negative control” value was “+26%”. The “Decorin expression, % increase or decrease versus the negative control” value in assay [4] (peptide 15 ppm) is recorded as “+39%”. For the same substance, the “Fibrillin-1, percentage increase in fibrillin abundance compared to untreated control” value in assay [5] (peptide 4 ppm (concentration with highest yield)) is reported as “+116%”.

Regarding Pal-EKGD-OH, the “Fibronectin expression, % increase or decrease versus the negative control” value in assay [1] (peptide 12.5 ppm) was “+114%”. In addition, the “Collagen IV expression, % increase or decrease versus the negative control” value in assay [2] (peptide 12.5 ppm) was “+73%”. In addition, in assay [3] (peptide 12.5 ppm), the “Collagen I (PIP) expression, % increase or decrease versus the negative control” value is recorded as “+101%”. Also, the “Decorin expression, % increase or decrease versus the negative control” value in assay [4] (peptide 12.5 ppm) is on record as “+43%”.

Take Pal-GYIL-OH [reference compound]: the “Fibronectin expression, % increase or decrease versus the negative control” value in assay [1] (peptide 15 ppm) is −38%. In assay [2] (peptide 15 ppm), the “Collagen IV expression, % increase or decrease versus the negative control” value is given as “+6%”. Further, the “Collagen I (PIP) expression, % increase or decrease versus the negative control” value in assay [3] (peptide 15 ppm) was “+18%”. Moreover, the “Decorin expression, % increase or decrease versus the negative control” value in assay [4] (peptide 15 ppm) is −13%. Moreover, the “Fibrillin-1, percentage increase in fibrillin abundance compared to untreated control” value in assay [5] (peptide 10 ppm (concentration with highest yield)) is listed as “+3%”.
